Measurements reported in patent US11780839B2, “Compounds for treating Huntington's disease” (PTC THERAPEUTICS, INC., priority 2018, dated 2023).

System: Endogenous Huntingtin Protein
Experiment: Endogenous Huntingtin Protein Assay (ELISA-based Meso Scale Discovery electrochemiluminescence)
Format: cell-based
Settings: MSD electrochemiluminescence, Table 1
Method in brief: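 Huntingtin was captured overnight at 4 °C on plates coated with 1 μg/mL MW1 (polyQ-expanded) or MAB2166 antibody and BSA-blocked. Detection used a rabbit monoclonal and then a SULFO-TAG goat anti-rabbit antibody (0.25 μg/mL, 1 h each, room temperature). Signal was read by electrochemiluminescence.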

| IC50 [nM] | Structure (SMILES) |
| --- | --- |
| ≤ 100 | CC(C)(C)N[C@@H]1CCN(c2ncc(-c3ccc(-c4cn[nH]c4)cc3O)nn2)C1 [Cpd 356, 2-{3-[(3R)-3-(tert-butylamino)pyrrolidin-l-yl]-1,2,4-triazin-6-yl}-5-(1H-pyrazol-4-yl)phenol] |
| ≤ 100 | Oc1cc(-c2cn[nH]c2)ccc1-c1cnc(N2CCC(NC3CCCC3)C2)nn1 (stereo not drawn) [Cpd 357, 2-{3-[3-(cyclopentylamino)pyrrolidin-l-yl]-1,2,4-triazin-6-yl}-5-(1H-pyrazol-4-yl)phenol] |
| 100 to 500 | CNC1CCN(c2ncc(-c3ccc(-c4ncco4)cc3O)nn2)C1 (stereo not drawn) [Cpd 358, 2-{3-[3-(methylamino)pyrrolidin-l-yl]-1,2,4-triazin-6-yl}-5-(1,3-oxazol-2-yl)phenol] |
| ≤ 100 | CC1(C)CC(Nc2ncc(-c3ccc(-c4cn5ccncc5n4)cc3O)nn2)CC(C)(C)N1 [Cpd 359, 5-(imidazo[1,2-a]pyrazin-2-yl)-2-{3-[(2,2,6,6-tetramethylpiperidin-4-yl)amino]-1,2,4-triazin-6-yl}phenol] |
| 100 to 500 | CC1(C)CC(Nc2ncc(-c3ccc(-c4cn5ccccc5n4)cc3O)nn2)CC(C)(C)N1 [Cpd 360, 5-(imidazo[1,2-a]pyridin-2-yl)-2-{3-[(2,2,6,6-tetramethylpiperidin-4-yl)amino]-1,2,4-triazin-6-yl}phenol] |
| ≤ 100 | CC(C)NCC1CCN(c2ncc(-c3ccc(-c4cn[nH]c4)cc3O)nn2)C1 (stereo not drawn) [Cpd 361, 2-[3-(3-{[(propan-2-yl)amino]methyl}pyrrolidin-l-yl)-1,2,4-triazin-6-yl]-5-(1H-pyrazol-4-yl)phenol] |
| ≤ 100 | CC1(NC2CCN(c3ncc(-c4ccc(-c5cn[nH]c5)cc4O)nn3)C2)CCOCC1 (stereo not drawn) [Cpd 362, 2-(3-{3-[(4-methyloxan-4-yl)amino]pyrrolidin-l-yl}-1,2,4-triazin-6-yl)-5-(1H-pyrazol-4-yl)phenol] |
| ≤ 100 | CC(C)(C)NC1CCN(c2cnc(-c3ccc(-c4cn[nH]c4)cc3O)nn2)C1 (stereo not drawn) [Cpd 363, 2-{6-[3-(tert-butylamino)pyrrolidin-l-yl]-1,2,4-triazin-3-yl}-5-(1H-pyrazol-4-yl)phenol] |
| 100 to 500 | CNC1CCN(c2ncc(-c3ccc(-c4cc(SC)ncn4)cc3O)nn2)C1 (stereo not drawn) [Cpd 364, 2-{3-[3-(methylamino)pyrrolidin-l-yl]-1,2,4-triazin-6-yl}-5-[6-(methylsulfanyl)pyrimidin-4-yl]phenol] |
| ≤ 100 | CC(C)(C)NC1CCN(c2ncc(-c3ccc(-c4c[nH]nc4Cl)cc3O)nn2)C1 (stereo not drawn) [Cpd 365, 2-{3-[3-(tert-butylamino)pyrrolidin-l-yl]-1,2,4-triazin-6-yl}-5-(3-chloro-1H-pyrazol-4-yl)phenol] |
| ≤ 100 | [2H]C([2H])([2H])n1cc(-c2ccc(-c3cnc(N4CCC(NC(C)(C)C)C4)nn3)c(O)c2)cn1 (stereo not drawn) [Cpd 367, 2-{3-[3-(tert-butylamino)pyrrolidin-l-yl]-1,2,4-triazin-6-yl}-5-[1-(^2H3)methyl-1H-pyrazol-4-yl]phenol] |
| ≤ 100 | Oc1cc(-c2cn[nH]c2)ccc1-c1cnc(N2CCC3(CCCNC3)C2)nn1 (stereo not shown) [Cpd 369, 2-[3-(2,7-diazaspiro[4.5]decan-2-yl)-1,2,4-triazin-6-yl]-5-(1H-pyrazol-4-yl)phenol] |
| ≤ 100 | Oc1cc(-c2cn[nH]c2)ccc1-c1cnc(N2CC3CCNC3C2)nn1 (stereo not shown) [Cpd 370, 2-[3-(hexahydropyrrolo[3,4-b]pyrrol-5(1H)-yl)-1,2,4-triazin-6-yl]-5-(1H-pyrazol-4-yl)phenol] |
| ≤ 100 | OCCCNC1CCN(c2ncc(-c3ccc(-c4cn[nH]c4)cc3O)nn2)C1 (stereo not shown) [Cpd 371, 2-(3-{3-[(3-hydroxypropyl)amino]pyrrolidin-1-yl}-1,2,4-triazin-6-yl)-5-(1H-pyrazol-4-yl)phenol] |
| ≤ 100 | Oc1cc(-c2cn[nH]c2)ccc1-c1cnc(N2CCC(CNC3CCOCC3)C2)nn1 (stereo not shown) [Cpd 372, 2-[3-(3-{[(oxan-4-yl)amino]methyl}pyrrolidin-1-yl)-1,2,4-triazin-6-yl]-5-(1H-pyrazol-4-yl)phenol] |
| ≤ 100 | CC(C)(C)NC1CCN(c2cnc(-c3ccc(-c4c[nH]nc4F)cc3O)nn2)C1 (stereo not shown) [Cpd 374, 2-{6-[3-(tert-butylamino)pyrrolidin-1-yl]-1,2,4-triazin-3-yl}-5-(3-fluoro-1H-pyrazol-4-yl)phenol] |
| ≤ 100 | Cc1n[nH]cc1-c1ccc(-c2cnc(N3CCC(NC(C)(C)C)C3)nn2)c(O)c1 (stereo not shown) [Cpd 375, 2-{3-[3-(tert-butylamino)pyrrolidin-1-yl]-1,2,4-triazin-6-yl}-5-(3-methyl-1H-pyrazol-4-yl)phenol] |
| ≤ 100 | COc1cc(-c2cn[nH]c2)cc(O)c1-c1cnc(N2CCC(NC(C)(C)C)C2)nn1 (stereo not shown) [Cpd 376, 2-{3-[3-(tert-butylamino)pyrrolidin-1-yl]-1,2,4-triazin-6-yl}-3-methoxy-5-(1H-pyrazol-4-yl)phenol] |
| ≤ 100 | [2H]C([2H])([2H])n1cc(-c2ccc(-c3cnc(N[C@H]4CC(C)(C)NC(C)(C)[C@H]4F)nn3)c(O)c2)cn1 [Cpd 377, 2-(3-{[(3S,4S)-3-fluoro-2,2,6,6-tetramethylpiperidin-4-yl]amino}-1,2,4-triazin-6-yl)-5-[1-(^2H3)methyl-1H-pyrazol-4-yl]phenol] |
| ≤ 100 | CC(C)(C)N[C@H]1CCN(c2ncc(-c3ccc(-c4c[nH]nc4F)cc3O)nn2)C1 [Cpd 378, 2-{3-[(3S)-3-(tert-butylamino)pyrrolidin-1-yl]-1,2,4-triazin-6-yl}-5-(3-fluoro-1H-pyrazol-4-yl)phenol] |
| ≤ 100 | CC(C)(C)N[C@@H]1CCN(c2ncc(-c3ccc(-c4c[nH]nc4F)cc3O)nn2)C1 [Cpd 379, 2-{3-[(3R)-3-(tert-butylamino)pyrrolidin-1-yl]-1,2,4-triazin-6-yl}-5-(3-fluoro-1H-pyrazol-4-yl)phenol] |
| ≤ 100 | CNc1cc(-c2ccc(-c3cnc(N4CCC(NC)C4)nn3)c(O)c2)ncn1 (stereo not shown) [Cpd 380, 5-[6-(methylamino)pyrimidin-4-yl]-2-{3-[3-(methylamino)pyrrolidin-1-yl]-1,2,4-triazin-6-yl}phenol] |
| ≤ 100 | C[C@@H]1CN(c2ncc(-c3ccc(-c4ccc5nccn5n4)cc3O)nn2)C[C@H](C)N1 [Cpd 385, 2-{3-[(3R,5S)-3,5-dimethylpiperazin-1-yl]-1,2,4-triazin-6-yl}-5-(imidazo[1,2-b]pyridazin-6-yl)phenol] |
| 100 to 500 | Oc1cc(-c2cn[nH]c2)ccc1-c1cnc(N2CCC(CNC3CCCC3)C2)nn1 (stereo not shown) [Cpd 386, 2-(3-{3-[(cyclopentylamino)methyl]pyrrolidin-1-yl}-1,2,4-triazin-6-yl)-5-(1H-pyrazol-4-yl)phenol] |
| ≤ 100 | Oc1cc(-c2cn[nH]c2)ccc1-c1cnc(N2CCC(C3CCCN3)C2)nn1 (stereo not shown) [Cpd 387, 2-[3-([2,3’-bipyrrolidin]-l’-yl)-1,2,4-triazin-6-yl]-5-(1H-pyrazol-4-yl)phenol] |
| ≤ 100 | Oc1cc(-c2cn[nH]c2)ccc1-c1cnc(N2CCC(CNCc3ccccn3)C2)nn1 (stereo not shown) [Cpd 388, 5-(1H-pyrazol-4-yl)-2-{3-[-({[(pyridin-2-yl)methyl]amino}methyl)pyrrolidin-1-yl]-1,2,4-triazin-6-yl}phenol] |
| ≤ 100 | Cn1cc(-c2ccc(-c3cnc(N4CCC(C)(N)C4)nn3)c(O)c2)cn1 (stereo not shown) [Cpd 389, 2-[3-(3-amino-3-methylpyrrolidin-1-yl)-1,2,4-triazin-6-yl]-5-(1-methyl-1H-pyrazol-4-yl)phenol] |
| ≤ 100 | CC(C)(C)NCC1CCN(c2ncc(-c3ccc(-c4cn[nH]c4)cc3O)nn2)C1 (stereo not shown) [Cpd 390, 2-(3-{3-[(tert-butylamino)methyl]pyrrolidin-1-yl}-1,2,4-triazin-6-yl)-5-(1H-pyrazol-4-yl)phenol] |
| ≤ 100 | CC1(NCC2CCN(c3ncc(-c4ccc(-c5cn[nH]c5)cc4O)nn3)C2)CCOCC1 (stereo not shown) [Cpd 391, 2-[3-(3-{[(4-methyloxan-4-yl)amino]methyl}pyrrolidin-1-yl)-1,2,4-triazin-6-yl]-5-(1H-pyrazol-4-yl)phenol] |
| ≤ 100 | Oc1cc(-c2cn[nH]c2)ccc1-c1cnc(N2CCC(CNC3CC3)C2)nn1 (stereo not shown) [Cpd 392, 2-(3-{3-[(cyclopropylamino)methyl]pyrrolidin-1-yl}-1,2,4-triazin-6-yl)-5-(1H-pyrazol-4-yl)phenol] |

| Structure (SMILES) | IC50 [nM] |
| --- | --- |
| CC(C)(C)NC1CCN(c2ncc(-c3ccc(-c4c[nH]nc4C#N)cc3O)nn2)C1 (stereo not drawn) [Cpd 366, 4-(4-{3-[3-(tert-butylamino)pyrrolidin-l-yl]-1,2,4-triazin-6-yl]-3-hydroxyphenyl)-1H-pyrazole-3-carbonitrile] | ≤ 100 |
| CN(c1ncc(-c2ccc(-c3ccn(C)n3)c(O)c2O)nn1)C1CC(C)(C)NC(C)(C)C1 [Cpd 368, 3-(1-methyl-1H-pyrazol-3-yl)-6-{3-[methyl(2,2,6,6-tetramethylpiperidin-4-yl)amino]-1,2,4-triazin-6-yl}benzene-1,2-diol] | 100 to 500 |
| [2H]C([2H])([2H])n1cc(-c2ccc(-c3cnc(NC4CC(C)(C)NC(C)(C)C4)nn3)c(O)c2)cn1 [Cpd 373, 5-[1-(^2H3)methyl-1H-pyrazol-4-yl]-2-{3-[(2,2,6,6-tetramethylpiperidin-4-yl)amino]-1,2,4-triazin-6-yl}phenol] | ≤ 100 |
| CN(c1ncc(-c2ccc(-n3ncc4ccncc43)cc2O)nn1)C1CC(C)(C)NC(C)(C)C1 [Cpd 381, 2-{3-[methyl(2,2,6,6-tetramethylpiperidin-4-yl)amino]-1,2,4-triazin-6-yl}-5-(1H-pyrazolo[3,4-c]pyridin-1-yl)phenol] | ≤ 100 |
| CN(c1cnc(-c2ccc(-c3ccncc3)cc2O)nn1)C1CC(C)(C)NC(C)(C)C1 [Cpd 382, 2-{6-[methyl(2,2,6,6-tetramethylpiperidin-4-yl)amino]-1,2,4-triazin-3-yl}-5-(pyridin-4-yl)phenol] | ≤ 100 |
| CN(c1ncc(-c2ccc(-c3cc(F)c4[nH]ncc4c3)cc2O)nn1)C1CC(C)(C)NC(C)(C)C1 [Cpd 383, 5-(7-fluoro-1H-indazol-5-yl)-2-{3-[methyl(2,2,6,6-tetramethylpiperidin-4-yl)amino]-1,2,4-triazin-6-yl}phenol] | ≤ 100 |
| CN(c1cnc(-c2ccc(-c3cccnc3)cc2O)nn1)C1CC(C)(C)NC(C)(C)C1 [Cpd 384, 2-{6-[methyl(2,2,6,6-tetramethylpiperidin-4-yl)amino]-1,2,4-triazin-3-yl}-5-(pyridin-3-yl)phenol] | ≤ 100 |
